Columns and labels:
[1] = test system: INSTI-resistant viruses; assay: Cytopathic antiviral assay in MT-2 cells, INSTI-resistant viruses; type: cell-based, HIV-1; settings: for EC50 Fold-Change: Mutant/WT (HXB2D) EC50 ratio, mean ± s.d. of three experiments
Procedure: The antiviral activity of the compound of Formula (a) was tested against a panel of known HIV-1 mutants resistant to HIV PIs (ATV and DRV), NRTIs (TFV and FTC), NNRTIs (RPV and EFV) or INSTIs (RAL, EVG and DTG) using a cytopathic antiviral assay in MT-2 cells. The compound of Formula (Ia) was fully active against all tested mutants resistant to PIs (Table 11), NRTIs (Table 12), NNRTIs (Table 13) or INSTIs (Table 14).

[2] = Plasma PK after single oral administration in solution, rat; type: in vivo, Sprague-Dawley Rat
Procedure: An oral formulation containing a compound of Formula (Ia) in […], 20% propylene glycol, 45 PEG 300, and 30% 0.01 N HCl was prepared. The formulation was orally administered to male rat, dog, cynomolgus monkey, and rhesus monkey according to the doses shown in Table 8 below.

[3] = male, Sprague-Dawley, plasma, rat, single oral 5.0 mg/kg, solution in 5% ethanol/20% propylene glycol/45% PEG 300/30% 0.01 N HCl, mean ± SD, n=3

CC(C)(C#Cc1ccc(-c2ccc(Cl)c3c(NS(C)(=O)=O)nn(CC(F)(F)F)c23)c([C@H](Cc2cc(F)cc(F)c2)NC(=O)Cn2nc(C(F)(F)F)c3c2C(F)(F)[C@@H]2C[C@H]32)n1)S(C)(=O)=O [Formula (Ia), N—((S)-1-(3-(4-chloro-3-(methylsulfonamido)-1-(2,2,2-trifluoroethyl)-1H-indazol-7-yl)-6-(3-methyl-3-(methylsulfonyl)but-1-yn-1-yl)pyridin-2-yl)-2-(3,5-difluorophenyl)ethyl)-2-((3bS,4aR)-5,5-difluoro-3-(trifluoromethyl)-3b,4,4a,5-tetrahydro-1H-cyclopropa[3,4]cyclopenta[1,2-c]pyrazol-1-yl)acetamide]
EC50 Fold-Change ([1]; E92Q/N155H): 0.9 ± 0.4
EC50 Fold-Change ([1]; E138K/Q148K): 0.7 ± 0.3
EC50 Fold-Change ([1]; G140S/Q148R): 0.8 ± 0.3
EC50 Fold-Change ([1]; N155H/Q148R): 1.3 ± 0.7
EC50 Fold-Change ([1]; R263K/M50I): 0.9 ± 0.5
EC50 Fold-Change ([1]; Y143R): 0.5 ± 0.1
activity against all tested mutants, in words ([1]; mutants resistant to INSTIs): fully active
bioavailability ([2]; male, Sprague-Dawley, plasma, rat, single oral 5.0 mg/kg, same solution, calculated based on AUC0-72h, mean ± SD, n=3, read-out: F (oral bioavailability)): 21.7 ± 8.9%
AUC(0-inf) [2, 3]: 25200 ± 10200 µM·h
Cmax [2, 3]: 336 ± 116 µM
Tmax [2, 3]: 10 ± 3.5 h
AUC(0-t) ([2]; male, Sprague-Dawley, plasma, rat, single oral 5.0 mg/kg, solution in 5% ethanol/20% propylene glycol/45% PEG 300/30% 0.01 N HCl, mean ± SD, n=3, read-out: AUC0-72h): 13500 ± 3930 µM·h
F % (bioavailability), in words ([2]; rats, oral solution): moderate
